In ChEMBL document CHEMBL3751786, “Toxocara canis: Larvicidal activity of fatty acid amides” (Bioorg Med Chem Lett, 2016):
Active and inactive are the calls of the source. The rule behind the calls is not given here.

How the values were obtained:
Toxocara canis [1] = experiment: Larvicidal activity against Toxocara canis larvae infected in BALB/c mouse at 40 mg/kg after 12 hrs; type: functional, organism-based
Toxocara canis [2] = experiment: Larvicidal activity against Toxocara canis larvae at 1 mg/ml after 48 hrs by trypan blue assay relative to control; type: functional
Toxocara canis [3] = experiment: Larvicidal activity against Toxocara canis larvae infected in BALB/c mouse at 1 mg/ml after 12 hrs; type: functional
Toxocara canis [4] = experiment: Larvicidal activity against Toxocara canis larvae infected in BALB/c mouse at 0.05 mg/ml after 12 hrs; type: functional
[5] = Cytotoxicity against C57BL/6 mouse peritoneal macrophages at 0.025 to 0.05 mg/ml after 48 hrs by LDH release assay; type: cell-based; conditions: peritoneal macrophage cell
[6] = Cytotoxicity against C57BL/6 mouse peritoneal macrophages at 0.025 to 0.05 mg/ml after 48 hrs by MTT assay; type: cell-based, Peritoneal macrophage cell; conditions: read-out: MLC

Structure (SMILES)	Activity (Toxocara canis [1])	Activity (Toxocara canis [2]) [%]	Activity (Toxocara canis [3])	Activity (Toxocara canis [4])	Activity [5] [%]	MCC at 48 h [6] [µg/mL]
CCCSc1ccc2[nH]c(NC(=O)OC)nc2c1 [ALBENDAZOLE]	Active	100	–	–	–	–
CCCCC/C=C\C/C=C\CCCCCCCC(=O)N[C@H](C)c1ccccc1	–	100	Active	–	–	–
CCCCCCCCCCCCCCCCCC(=O)N[C@H](C)c1ccccc1	–	100	Active	–	–	–
CCCCCC[C@@H](O)C/C=C\CCCCCCCC(=O)NCc1ccccc1	–	100	Active	–	–	–
CCCCCC[C@@H](O)C/C=C\CCCCCCCC(=O)NN1CCOCC1	–	100	Active	–	–	–
CCCCCC[C@@H](O)C/C=C\CCCCCCCC(=O)NN1CCCC1	–	100	Active	–	–	–
CCCCCCCC/C=C\CCCCCCCC(=O)NC(C)c1ccccc1 (centres undefined)	–	100	Active	–	–	–
CCCCCCCCCCCCCCCCCC(=O)N[C@@H](C)c1ccccc1	–	100	Active	–	–	–
CCCCCC[C@@H](O)C/C=C\CCCCCCCC(=O)N[C@H](C)c1ccccc1	–	100	Active	–	–	–
CCCCCCCC/C=C\CCCCCCCC(=O)N[C@H](C)c1ccccc1	–	100	Active	–	–	–
CCCCCCCCCCCCCCCC(=O)N[C@H](C)c1ccccc1	–	100	Active	–	–	–
CCCCCC[C@@H](O)C/C=C\CCCCCCCC(=O)N[C@@H](C)c1ccccc1	–	100	Active	–	–	–
CCCCC/C=C\C/C=C\CCCCCCCC(=O)N[C@@H](C)c1ccccc1	–	100	Active	–	–	–
CCCCCCCC/C=C\CCCCCCCC(=O)N[C@@H](C)c1ccccc1	–	100	Active	–	–	–
CCCCCCCC/C=C\CCCCCCCC(=O)NN1CCOCC1	–	100	Active	–	–	–
CCCCC/C=C\C/C=C\CCCCCCCC(=O)NN1CCCC1	–	100	–	Active	27	50
